The text below walks through data of publication PMC7844219, “Antifibrotic effect of novel neutrophil gelatinase-associated lipocalin inhibitors in cardiac and renal disease models” (Scientific Reports, 2021).

The target in series [1] is T1, hERG channel (Homo sapiens, UniProt Q12809).
T1 construct: purchased Thermo Fisher Scientific
In words: Cardiotoxicity, Predictor hERG fluorescence polarization kit. It counts as binding. As to the method:
Several parameters have been evaluated to determine ADME-Tox profile of the compounds. Two specific toxicity assays have been performed to assess hepatoxicity and cardiotoxicity. Hepatotoxicity was evaluated in isolated hepatocytes from swiss mice and determined by the thiazolyl blue tetrazolium bromide colorimetric assay (sigma, St Louis, MO, USA). Cardiotoxicity was evaluated using the commercially available Predictor hERG fluorescence polarization kit (Thermo Fisher Scientific, Illinois, USA). Several absorption, distribution, metabolism, and excretion (ADME) assays have been carried out. The following experiments were undertaken: stability in human microsomes, binding to human plasma protein, and CYP3A4 inhibition assay (Vivid CYP3A4 assay, Thermo Fisher Scientific, Illinois, USA). Physico-chemical properties were also assessed such as aqueous solubility and chemical stability.

Series [2] has as its system CKD mouse model. In words: Chronic kidney disease (CKD) mouse model, 5/6 (subtotal) nephrectomy. It counts as in vivo. Also noted: Plasma creatinine level: unit not given here. Conditions: CKD mice. On the procedure: Animals were housed in a climate-controlled facility with a 12-h/12-h light/dark cycle and provided free access to food and water. Experiments were approved by the Darwin ethics committee of Sorbonne University, and conducted according to the INSERM animal care and use committee guidelines. The NGAL inhibitor GP1 was incorporated in regular chow (A04, Safe, Augy, France) at the dose of 625 mg GP1/kg of chow to achieve a low dose of 100 mg/kg/day of GP1 administered to the mice (based on a daily consumption of 4 g of chow).
LV hemodynamic was assessed as described previously. Briefly, mice were anesthetized (chloral 320 mg/kg, IP) and the carotid artery cannulated with a pressure–volume catheter (SPR839, Millar-Instruments, USA) and the catheter was advanced into the LV. Pressure–volume loops were obtained at baseline and during loading by gently occluding the abdominal aorta. LV end-systolic and end-diastolic pressures, dP/dtmax/min, LV relaxation constant tau and were measured/calculated with IOX software (EMKA, France). Systolic BP was measured by tail-cuff plethysmography in trained conscious mice at weeks 8–10 using a BP2000 Visitech model. BP was measured every day in the same room at the same hour for 5 consecutive days. The BP measurements (expressed as mmHg) presented are the averages of the last 3 days.
Chronic kidney disease (CKD) was induced by subtotal nephrectomy in 8-weeks-old male mice (25–26 g). All surgeries were performed under ketamine/xylazine anaesthesia. Briefly, the left kidney was exposed, and the upper and lower poles were tied with a poly-glycolic acid suture line. The peritoneum and skin were then sutured, and the animals were returned to their individual cages. After 1 week of recovery, the second kidney was removed. Removal of the second kidney represents T0. Sham mice were subjected to the same surgical procedures but neither renal poles nor the right kidney were removed. Mice were monitored for any sign of distress, and those observed to be experiencing severe, unrelievable pain were euthanized. Renal failure was assessed by the measure of plasma creatinine and urea with an automatic analyser (Konelab 20i; Thermo Fisher Scientific, Vernon Hills, IL) at weeks 4 and 8 post-Nx.
In the MI model, heart was harvested after hemodynamics and the atria and the ventricles were separated and weighed individually. A section of the left ventricle was immersed in Bouin fixative solution. In the CKD model, kidneys were harvested and a section was immersed in paraformaldehyde fixative solution. After fixation, the sections were dehydrated and embedded in paraffin. From these sections, 5-μm thick histologic slices were obtained and were stained with Sirius Red. For the measurement of cardiac or renal collagen density, slides were examined and photographed under a light microscope (Zeiss) at 40× magnification. Collagen content was calculated as percentage of collagen area to total area of the image. Perivascular collagen was excluded from the analysis. For tubular lesions scoring, kidney slides were stained with Periodic Acid-Schiff kit (Sigma) and the score of tubules with injury (epithelial cell necrosis and detachment, and tubular dilation) was analyzed blinded to the experimental groups.
Frozen tissues (kidneys, heart) were homogenized in TRIzol (Life Technologies, Illinois, USA) using FastPrep beads (MP-Bio, CA, USA). cDNAs were generated using the Superscript II reverse transcriptase kit (Invitrogen,NY, USA), and qPCR was performed as previously described. Briefly, transcript levels were analysed in a CFX396 apparatus (Biorad). The reactions were performed in duplicate for each sample using the IQ SYBR Green supermix Kit (Biorad,CA, USA). To normalize gene expression, the geometric mean of multiple internal reference genes were used (RS16, Ubc, Hprt and Gapdh for mice experiments). Values in control conditions were set as 1 for each gene. The sequences of the specific primers are detailed in Table S8.

The test system of series [3] is TGFβ-treated human cardiac fibroblasts. The series is described as follows: Specificity: IL6 and Col I secretion in TGFβ-treated human cardiac fibroblasts. The settings on record: 10 µM, Fig. S5. It counts as cell-based. On the procedure: Primary human cardiac fibroblasts (HCF) were obtained from Promocell (Heidelberg, Germany) and maintained in Fibroblast Media 3 following manufacturer’s instructions (Promocell). Cells were used between passages 5 and 7. Cells were stimulated with recombinant hNGAL (500 ng/mL, R&D Systems) or with TGFβ (10 ng/mL, R&D Systems) for 24 h. To assess cell proliferation the MTT test was used following provider’s instructions (Roche). For protein analysis. Primary Mouse Kidney Fibroblasts (MKF) were isolated from Wild Type (WT) mice. Briefly, 8 weeks old mice were sacrificed by cervical dislocation and kidneys were cleaned and rinsed in cold DPBS (Dulbecco's Phosphate-Buffered Saline). The renal cortex was minced and incubated in Dulbecco’s modified eagle medium/Nutrient mixture F-12 (DMEM/F12, Sigma) containing 1 mg/mL collagenase A (Roche) during 25 min at 37 °C. The digestion was inactivated by adding culture medium (DMEM/F12 + 10% FBS) then the cell suspension was passed through a 100-μm cell strainer. After centrifugation, the pellet (containing MKF) was diluted with culture medium then plated in 75 cm^2 culture flask. After 24 h MKF were washed with DPBS before replacement of fresh culture medium. […]
IL6 and collagen type I concentrations were measured in cardiac tissue and cell supernatants by ELISA according to the manufacturer's instructions (R&D Systems).

For series [4], the target named is T2, mNGAL (Mus musculus, UniProt P11672).
T2 construct: purchased R&D Systems
T2 sequence (P11672 21-200): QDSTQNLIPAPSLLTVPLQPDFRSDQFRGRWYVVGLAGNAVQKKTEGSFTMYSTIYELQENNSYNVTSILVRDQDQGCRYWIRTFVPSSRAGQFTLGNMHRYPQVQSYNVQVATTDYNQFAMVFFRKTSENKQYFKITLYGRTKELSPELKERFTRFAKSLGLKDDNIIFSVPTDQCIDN
In words: mNGAL-induced gene expression in primary mouse kidney fibroblasts (RT-PCR). It counts as cell-based. On the procedure:
Primary human cardiac fibroblasts (HCF) were obtained from Promocell (Heidelberg, Germany) and maintained in Fibroblast Media 3 following manufacturer’s instructions (Promocell). Cells were used between passages 5 and 7. Cells were stimulated with recombinant hNGAL (500 ng/mL, R&D Systems) or with TGFβ (10 ng/mL, R&D Systems) for 24 h. To assess cell proliferation the MTT test was used following provider’s instructions (Roche). For protein analysis. Primary Mouse Kidney Fibroblasts (MKF) were isolated from Wild Type (WT) mice. Briefly, 8 weeks old mice were sacrificed by cervical dislocation and kidneys were cleaned and rinsed in cold DPBS (Dulbecco's Phosphate-Buffered Saline). The renal cortex was minced and incubated in Dulbecco’s modified eagle medium/Nutrient mixture F-12 (DMEM/F12, Sigma) containing 1 mg/mL collagenase A (Roche) during 25 min at 37 °C. The digestion was inactivated by adding culture medium (DMEM/F12 + 10% FBS) then the cell suspension was passed through a 100-μm cell strainer. After centrifugation, the pellet (containing MKF) was diluted with culture medium then plated in 75 cm^2 culture flask. After 24 h MKF were washed with DPBS before replacement of fresh culture medium. Thereafter, culture medium was changed every 48 h. Once 70–80% confluent, MKF were trypsinized and plated in 12 or 6-well plates. For experimental use, MKF were starved with culture medium containing only 3% FBS. MKF were treated with mNGAL (500 ng/mL, R&D Systems) or with TGFβ (10 ng/mL, R&D Systems) for 6 h for gene expression analysis.
Frozen tissues (kidneys, heart) were homogenized in TRIzol (Life Technologies, Illinois, USA) using FastPrep beads (MP-Bio, CA, USA). cDNAs were generated using the Superscript II reverse transcriptase kit (Invitrogen,NY, USA), and qPCR was performed as previously described. Briefly, transcript levels were analysed in a CFX396 apparatus (Biorad). The reactions were performed in duplicate for each sample using the IQ SYBR Green supermix Kit (Biorad,CA, USA). […]

T1 sequence (Q12809 whole entry): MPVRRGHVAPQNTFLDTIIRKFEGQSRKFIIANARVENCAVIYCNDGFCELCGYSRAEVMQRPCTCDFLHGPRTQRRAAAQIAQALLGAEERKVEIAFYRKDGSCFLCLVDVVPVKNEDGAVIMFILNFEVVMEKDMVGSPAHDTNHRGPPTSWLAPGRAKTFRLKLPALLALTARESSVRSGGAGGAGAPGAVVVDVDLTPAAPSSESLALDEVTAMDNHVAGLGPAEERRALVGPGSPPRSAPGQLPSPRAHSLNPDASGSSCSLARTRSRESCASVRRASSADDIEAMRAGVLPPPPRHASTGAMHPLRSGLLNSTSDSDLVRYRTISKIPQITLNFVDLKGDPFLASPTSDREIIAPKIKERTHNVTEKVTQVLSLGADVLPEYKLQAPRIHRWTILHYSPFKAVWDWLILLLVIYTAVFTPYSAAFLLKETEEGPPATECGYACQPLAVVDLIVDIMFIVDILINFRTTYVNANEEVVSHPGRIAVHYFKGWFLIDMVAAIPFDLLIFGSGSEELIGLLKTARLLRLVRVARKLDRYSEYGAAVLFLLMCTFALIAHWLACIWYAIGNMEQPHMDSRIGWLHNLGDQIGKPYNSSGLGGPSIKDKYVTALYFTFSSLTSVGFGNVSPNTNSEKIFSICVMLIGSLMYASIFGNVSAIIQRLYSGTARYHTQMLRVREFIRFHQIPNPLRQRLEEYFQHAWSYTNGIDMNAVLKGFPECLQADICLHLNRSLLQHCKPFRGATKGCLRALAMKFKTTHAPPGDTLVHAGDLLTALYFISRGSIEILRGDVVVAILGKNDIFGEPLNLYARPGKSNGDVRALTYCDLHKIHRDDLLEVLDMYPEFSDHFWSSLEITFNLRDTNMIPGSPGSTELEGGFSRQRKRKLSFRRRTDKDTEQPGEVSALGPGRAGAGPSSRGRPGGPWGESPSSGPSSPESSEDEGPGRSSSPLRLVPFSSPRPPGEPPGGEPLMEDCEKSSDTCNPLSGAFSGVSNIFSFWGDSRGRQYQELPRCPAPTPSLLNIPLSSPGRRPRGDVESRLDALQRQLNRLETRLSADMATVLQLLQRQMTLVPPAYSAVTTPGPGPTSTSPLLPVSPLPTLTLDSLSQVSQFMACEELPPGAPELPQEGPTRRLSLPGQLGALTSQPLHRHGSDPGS

Regarding `CC(=O)c1cccc(S(=O)(=O)NCc2ccccc2-n2cccn2)c1` [GPZ614741], in series [1], the “Cardiotoxicity (hERG predictor assay), in words” value is given as “nontoxic”. Also, the “Cardiotoxicity % (100= no toxicity)” value in series [1] (Table S5, hERG predictor assay) is on record as 101.76 ± 2.48%. Also, the “KW/TL (kidney weight/tibia length)” value in series [2] (GP1 100 mg/kg/day, two months, CKD untreated 11.5 ± 0.42) is reported as 11.3 ± 0.23 mg/mm. Also, in series [2] (GP1 100 mg/kg/day, two months, CKD untreated 15.2 ± 0.36), the Plasma urea level amounted to 16.74 ± 1.86 mM. The Plasma creatinine level in series [2] (GP1 100 mg/kg/day, two months, CKD untreated 21.5 ± 1.45) was 20.4 ± 1.54. Besides, the “SBP (systolic blood pressure)” value in series [2] (GP1 100 mg/kg/day, two months, CKD untreated 139.3 ± 2.22) is 122.1 ± 2.58 mmHg. Besides, in series [2] (kidney mRNA, Fig. 4C), the “Increased expression of profibrotic markers (Col I, fibronectin, αSMA)” value was “blunted”. In addition, the “Functional parameters: plasma levels of urea or creatinine, in words” value in series [2] (one and two months after CKD induction) is listed as “no impact”. For the same molecule, the “Increase in blood pressure, in words” value in series [2] (two months of GP1) is “prevented the increase”. In series [2] (two months of GP1, Fig. 4A), the “Renal tubulointerstitial fibrosis (Sirius red)” value was “strong antifibrotic effect”. Also, the “Tubular injury (tubular lesion scoring, PAS)” value in series [2] (× 3.1 in CKD vs. Sham, Fig. 4B) is listed as “prevented”. For the same molecule, the “Effect on TGFβ-increased IL6 and Col I secretion” value in series [3] is recorded as “no inhibitory effect”. In addition, the “NGAL-induced collagen I expression” value in series [4] (1 µM, mouse kidney fibroblasts, Fig. S4) is “prevented”. The “mNGAL-induced expression of profibrotic markers (Col I, fibronectin, αSMA)” value in series [4] (10 µM, MKF, mRNA, Fig. 3A) was “inhibited”. For the same molecule, in series [4] (10 µM, MKF, mRNA, Fig. 3B), the “mNGAL-induced expression of inflammatory markers (IL6, MCP1)” value is on record as “inhibited”.
